“And” between values parts separate entries of the source, which are not always exact repeats. Equal values may be shown once. Read-outs that look alike come from different tables or passages of the source.
Assays:
Alternaria solani = assay: Fungicidal activity, fungicide growth rate method, AS; type: cell-based; conditions: for inhibition at 50 µg/mL: Alternaria solani, read-out: fungicidal activity (growth inhibition rate), AS
wheat Gibberella zeae = assay: microbe, parasite or virus in culture; type: cell-based; conditions: for inhibition at 50 µg/mL: Fusarium graminearum, read-out: fungicidal activity (growth inhibition rate), GZ, 50 μg/mL
Rhizoctonia cerealis = assay: Fungicidal activity, fungicide growth rate method, RC; type: cell-based; conditions: for inhibition at 50 µg/mL: Ceratobasidium cereale, read-out: fungicidal activity (growth inhibition rate), RC
Botrytis cinerea = assay: Fungicidal activity, fungicide growth rate method, BC; type: cell-based; conditions: for inhibition at 50 µg/mL: Botrytis cinerea, read-out: fungicidal activity (growth inhibition rate), BC
[1] = tested on: Helicoverpa armigera (Hübner); assay: Insecticidal activity against Helicoverpa armigera (Hübner); type: in vivo; conditions: 100 μg/mL; for pest or weed control at 100 µg/mL: Helicoverpa armigera, read-out: insecticidal activity, Helicoverpa armigera (Hübner)
[2] = tested on: Phytophthora infestans (Mont.) de Bary; assay: microbe, parasite or virus in culture; type: cell-based; conditions: for inhibition at 50 µg/mL: Phytophthora infestans, read-out: fungicidal activity (growth inhibition rate), PI, 50 μg/mL
Cercospora arachidicola = assay: Fungicidal activity, fungicide growth rate method, CA; type: cell-based; conditions: for inhibition at 50 µg/mL: Mycosphaerella arachidis, read-out: fungicidal activity (growth inhibition rate), CA
Physalospora piricola = assay: Fungicidal activity, fungicide growth rate method, PP; type: cell-based; conditions: for inhibition at 50 µg/mL: read-out: fungicidal activity (growth inhibition rate), PP
Ostrinia furnacalis = assay: Insecticidal activity against Ostrinia furnacalis; type: in vivo; conditions: 100 μg/mL; for pest or weed control at 100 µg/mL: Ostrinia furnacalis, read-out: insecticidal activity, Ostrinia furnacalis
Pellicularia sasakii = assay: Fungicidal activity, fungicide growth rate method, PS; type: cell-based; conditions: for inhibition at 50 µg/mL: read-out: fungicidal activity (growth inhibition rate), PS
[3] = tested on: Mythimna separate (Walker); assay: Insecticidal activity against Mythimna separate (Walker); type: in vivo; conditions: 100 μg/mL; for pest or weed control at 100 µg/mL: Mythimna, read-out: insecticidal activity, Mythimna separate (Walker)
Caenorhabditis elegans = assay: Insecticidal activity against Caenorhabditis elegans; type: in vivo; conditions: Caenorhabditis elegans, 100 μg/mL; read-out: insecticidal activity, Caenorhabditis elegans
Sclerotinia sclerotiorum = assay: Fungicidal activity, fungicide growth rate method, SS; type: cell-based; conditions: 50 μg/mL; for inhibition at 50 µg/mL: Sclerotinia sclerotiorum
[4] = tested on: Apis mellifera ligustica Spin; conditions: for Death number after 24 h / Death number after 48 h: per replicate of 10 bees

Compound | inhibition at 50 µg/mL (wheat Gibberella zeae) | pest or weed control at 100 µg/mL [1] | inhibition at 50 µg/mL [2] | pest or weed control at 100 µg/mL (Ostrinia furnacalis) | pest or weed control at 100 µg/mL [3] | pest or weed control at 100 µg/mL (Caenorhabditis elegans) | inhibition at 50 µg/mL (Alternaria solani; 50 μg/mL) | inhibition at 50 µg/mL (Rhizoctonia cerealis; 50 μg/mL) | inhibition at 50 µg/mL (Botrytis cinerea; 50 μg/mL) | inhibition at 50 µg/mL (Pellicularia sasakii; 50 μg/mL) | inhibition at 50 µg/mL (Sclerotinia sclerotiorum) | inhibition at 50 µg/mL (Cercospora arachidicola; 50 μg/mL) | inhibition at 50 µg/mL (Physalospora piricola; 50 μg/mL) | also measured
C[Si](C)(C)O[C@]12CC=CC[C@@H]1C=CC2=O [Zyj06-82] | 0% | 5% | 16% | 5% | 25% | 8% | – | – | – | – | – | – | – | inhibition at 50 µg/mL (Alternaria solani): 14%; inhibition at 50 µg/mL (Rhizoctonia cerealis): 43%; inhibition at 50 µg/mL (Botrytis cinerea): > 50%; inhibition at 50 µg/mL (Cercospora arachidicola): 24%; inhibition at 50 µg/mL (Physalospora piricola): 40%; inhibition at 50 µg/mL (Pellicularia sasakii): 23%
CC(C)(C)OO[C@@H]1CC(=O)[C@@]2(O)CC=CC[C@H]12 [Zyj06-92-2] | – | 10% | 15% | 10% | 20% | 20% | > 60% | > 70% | 30% | 41% | 38% | – | – | –
CCOC(=O)C1C(=O)O[C@]23CC=CC[C@@H]2[C@H](OOC(C)(C)C)C[C@]13O (stereo partly drawn) [Zyj06-127] | 36% | 0% | 2% | 0% | 0% | 7% | 7% | 40% | 45% | 4% | – | 23% | 5% | Death rate after 48 h (%) ([4]; dosage 5.40 μg a.i./bee): 0%; Death number after 24 h ([4]; dosage 5.40 μg a.i./bee): 0; Death number after 48 h ([4]; dosage 5.40 μg a.i./bee): 0; Death rate after 48 h (%) ([4]; dosage 7.70 μg a.i./bee): 0%; Death number after 24 h ([4]; dosage 7.70 μg a.i./bee): 0; Death number after 48 h ([4]; dosage 7.70 μg a.i./bee): 0
CCOC(=O)C[C@@H]1C[C@]2(O)CC(=O)O[C@@]23CC=CC[C@H]13 [Zyj06-128] | – | – | 7% | – | – | > 30% | – | > 70% | 25% | 20% | 0% | 27% | 8% | –
CCOC(=O)C1C(=O)O[C@]23CC=CC[C@@H]2[C@H](OC)C[C@]13O (stereo partly drawn) [Zyj06-187] | > 50% | 0% | 31% | 0% | 10% | 8% | 14% | 50% | 34% | 0% | 43% | > 50% | – | Death rate after 48 h (%) ([4]; dosage 6.08 μg a.i./bee): 0%; Death number after 24 h ([4]; dosage 6.08 μg a.i./bee): 0; Death number after 48 h ([4]; dosage 6.08 μg a.i./bee): 0; Death rate after 48 h (%) ([4]; dosage 10.6 μg a.i./bee): 10.0%; Death number after 24 h ([4]; dosage 10.6 μg a.i./bee): 0; Death number after 48 h ([4]; dosage 10.6 μg a.i./bee): 1
C=CC[C@@H]1C[C@]2(O)CC(O)O[C@@]23CC=CC[C@H]13 (stereo partly drawn) [Zyj07-29] | 7% | 15% | 25% | 10% | > 30% | > 30% | 0% | 0% | 27% | 0% | – | 5% | 45% | Death rate after 48 h (%) ([4]; dosage 3.68 μg a.i./bee): 5.0%; Death number after 24 h ([4]; dosage 3.68 μg a.i./bee): 0; Death number after 48 h ([4]; dosage 3.68 μg a.i./bee): 0 and 1; Death rate after 48 h (%) ([4]; dosage 4.39 μg a.i./bee): 0%; Death number after 24 h ([4]; dosage 4.39 μg a.i./bee): 0; Death number after 48 h ([4]; dosage 4.39 μg a.i./bee): 0
C=CC[C@@H]1C[C@]2(O)CCO[C@@]23CC=CC[C@H]13 [Zyj07-30] | 3% | 0% | 15% | 0% | 0% | 7% | 0% | 13% | 39% | 27% | – | 14% | 0% | Death rate after 48 h (%) ([4]; dosage 9.77 μg a.i./bee): 15.0%; Death number after 24 h ([4]; dosage 9.77 μg a.i./bee): 0; Death number after 48 h ([4]; dosage 9.77 μg a.i./bee): 1 and 2; Death rate after 48 h (%) ([4]; dosage 19.8 μg a.i./bee): 5.0%; Death number after 24 h ([4]; dosage 19.8 μg a.i./bee): 0; Death number after 48 h ([4]; dosage 19.8 μg a.i./bee): 1 and 0
C=CC[C@@H]1C[C@]2(O)CC(O)O[C@@]23C[C@H]2O[C@H]2C[C@H]13 (stereo partly drawn) [Zyj07-64] | 73% | 10% | 17% | 5% | 20% | 8% | > 60% | > 70% | 41% | > 60% | 45% | – | – | Death rate after 48 h (%) ([4]; dosage 10.0 μg a.i./bee): 15.0%; Death number after 24 h ([4]; dosage 10.0 μg a.i./bee): 0; Death number after 48 h ([4]; dosage 10.0 μg a.i./bee): 1 and 2; Death rate after 48 h (%) ([4]; dosage 15.5 μg a.i./bee): 10.0%; Death number after 24 h ([4]; dosage 15.5 μg a.i./bee): 0 and 1; Death number after 48 h ([4]; dosage 15.5 μg a.i./bee): 0 and 2
C=CC[C@@H]1CC2=CC(=O)O[C@@]23CC=CC[C@H]13 [Zyj07-92] | – | 0% | 15% | 0% | 20% | – | > 60% | > 70% | 30% | 40% | 38% | – | – | Death rate after 48 h (%) ([4]; dosage 7.44 μg a.i./bee): 5.0%; Death number after 24 h ([4]; dosage 7.44 μg a.i./bee): 0; Death number after 48 h ([4]; dosage 7.44 μg a.i./bee): 0 and 1; Death rate after 48 h (%) ([4]; dosage 14.3 μg a.i./bee): 5.0%; Death number after 24 h ([4]; dosage 14.3 μg a.i./bee): 0; Death number after 48 h ([4]; dosage 14.3 μg a.i./bee): 0 and 1
CCOC(=O)C1C(=O)O[C@]23CC=CC[C@@H]2CC[C@]13O (stereo partly drawn) [Zyj07-95] | > 50% | 10% | 29% | 10% | > 30% | – | > 60% | > 70% | – | 57% | > 50% | – | – | Death rate after 48 h (%) ([4]; dosage 9.36 μg a.i./bee): 0%; Death number after 24 h ([4]; dosage 9.36 μg a.i./bee): 0; Death number after 48 h ([4]; dosage 9.36 μg a.i./bee): 0; Death rate after 48 h (%) ([4]; dosage 19.9 μg a.i./bee): 0%; Death number after 24 h ([4]; dosage 19.9 μg a.i./bee): 0; Death number after 48 h ([4]; dosage 19.9 μg a.i./bee): 0
C=CC[C@@H]1C[C@@]2(O)C[C@@H](CC=C)[C@H]3CC=CC[C@@]32O1 [Zyj07-98] | > 50% | 0% | 17% | – | 0% | 25% | > 60% | > 70% | > 50% | 27% | > 50% | – | – | Death rate after 48 h (%) ([4]; dosage 8.47 μg a.i./bee): 0%; Death number after 24 h ([4]; dosage 8.47 μg a.i./bee): 0; Death number after 48 h ([4]; dosage 8.47 μg a.i./bee): 0
Ryanodine [reference compound] | – | – | – | – | – | – | – | – | – | – | – | – | – | fungicidal activity (growth inhibition rate), AS (Alternaria solani; 50 μg/mL): 25%; fungicidal activity (growth inhibition rate), GZ (wheat Gibberella zeae; 50 μg/mL): 20%; fungicidal activity (growth inhibition rate), RC (Rhizoctonia cerealis; 50 μg/mL): 50%; fungicidal activity (growth inhibition rate), BC (Botrytis cinerea; 50 μg/mL): 25%; insecticidal activity, Helicoverpa armigera (Hübner) [1]: 100%; fungicidal activity (growth inhibition rate), PI ([2]; 50 μg/mL): 30%; fungicidal activity (growth inhibition rate), CA (Cercospora arachidicola; 50 μg/mL): 10%; fungicidal activity (growth inhibition rate), PP (Physalospora piricola; 50 μg/mL): 25%; insecticidal activity, Ostrinia furnacalis (Ostrinia furnacalis): 100%; fungicidal activity (growth inhibition rate), PS (Pellicularia sasakii; 50 μg/mL): 32%; insecticidal activity, Mythimna separate (Walker) [3]: 100%; fungicidal activity (growth inhibition rate), SS (Sclerotinia sclerotiorum): 25%
